In PubChem BioAssay (NCI):
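1) Cells in 96-well plates. 2) Compound, 48 h, 5 concentrations. 3) Linear interpolation between surrounding doses. 4) Unreached endpoint = highest concentration. The concentration for 50% growth inhibition is given as GI50. TGI is the concentration that stops growth completely.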

Columns and labels:
Assay in all cases: growth of human tumour cells (NCI), 48 h
[1] = test system: RPMI-8226 leukemia
[2] = test system: HOP-62 NSCLC
[3] = test system: SNB-19 CNS
[4] = test system: TK-10 renal
[5] = test system: SW-620 colon
[6] = test system: SF-268 CNS
[7] = test system: ACHN renal
[8] = test system: EKVX NSCLC
[9] = test system: A549 NSCLC
[10] = test system: MCF7 breast
[11] = test system: OVCAR-8 ovarian
[12] = test system: HOP-92 NSCLC
[13] = test system: SK-MEL-5 melanoma
[14] = test system: KM12 colon
[15] = test system: OVCAR-3 ovarian
[16] = test system: SNB-75 CNS
[17] = test system: RXF 393 renal
[18] = test system: 786-0 renal
[19] = test system: PC-3 prostate
[20] = test system: HCT-15 colon
[21] = test system: HS 578T breast
[22] = test system: IGROV1 ovarian
[23] = test system: OVCAR-5 ovarian
[24] = test system: NCI/ADR-RES ovarian
[25] = test system: MDA-MB-231 breast
[26] = test system: CCRF-CEM leukemia
[27] = test system: MDA-MB-435
[28] = test system: NCI-H522 lung
[29] = test system: K-562 leukemia
[30] = test system: COLO 205 colon
[31] = test system: M14 melanoma
[32] = test system: HT29 colon
[33] = test system: UACC-257 melanoma
[34] = test system: T-47D breast
[35] = test system: UACC-62 melanoma
[36] = test system: SK-MEL-28 melanoma
[37] = test system: SK-MEL-2 melanoma
[38] = test system: A498 renal
[39] = test system: MOLT-4 leukemia
[40] = test system: SR leukemia
[41] = test system: MALME-3M melanoma
[42] = test system: HL-60(TB) leukemia
[43] = test system: SF-539 CNS
[44] = test system: OVCAR-4 ovarian
[45] = test system: HCC-2998 colon
[46] = test system: DU-145 prostate
[47] = test system: LOX IMVI melanoma
[48] = test system: UO-31 renal
[49] = test system: NCI-H226 lung
[50] = test system: HCT-116 colon
[51] = test system: U251 CNS
[52] = test system: SK-OV-3 ovarian
[53] = test system: CAKI-1 renal
[54] = test system: BT-549 breast
[55] = test system: NCI-H460 lung
[56] = test system: SN12C renal
[57] = test system: SF-295 CNS

COc1cc(OC)c(S(N)(=O)=O)cc1C(=O)/C=C/c1ccc(Cl)cc1
GI50 [1]: 1.86 µM | TGI [1]: 6.33 µM | GI50 [2]: 2.58 µM | TGI [2]: 6.59 µM | GI50 [3]: 3.17 µM | TGI [3]: 16.7 µM | GI50 [4]: 2.91 µM | TGI [4]: 8.89 µM | GI50 [5]: 2.49 µM | TGI [5]: 11.7 µM | GI50 [6]: 3.75 µM | TGI [6]: 26.1 µM | GI50 [7]: 3.16 µM | TGI [7]: 11.1 µM | GI50 [8]: 3.88 µM | TGI [8]: 22.3 µM | GI50 [9]: 3.17 µM | TGI [9]: 14.2 µM | GI50 [10]: 1.08 µM | TGI [10]: 4.11 µM | GI50 [11]: 3.01 µM | TGI [11]: 14.6 µM | GI50 [12]: 1.46 µM | TGI [12]: 4.92 µM | GI50 [13]: 4.93 µM | TGI [13]: 16.9 µM | GI50 [14]: 1.82 µM | TGI [14]: 7.06 µM | GI50 [15]: 3.51 µM | TGI [15]: 17.6 µM | GI50 [16]: 1.5 µM | TGI [16]: 3.23 µM | GI50 [17]: 1.62 µM | TGI [17]: 3.34 µM | GI50 [18]: 1.9 µM | TGI [18]: 4.32 µM | GI50 [19]: 1.6 µM | TGI [19]: 4.25 µM | GI50 [20]: 1.46 µM | TGI [20]: 10.2 µM | GI50 [21]: 4.22 µM | TGI [21]: > 100 µM | GI50 [22]: 2.95 µM | TGI [22]: 12.3 µM | GI50 [23]: 3.18 µM | TGI [23]: 11.5 µM | GI50 [24]: 3.97 µM | TGI [24]: > 100 µM | GI50 [25]: 3.92 µM | TGI [25]: 18.9 µM | GI50 [26]: 1.52 µM | TGI [26]: > 100 µM | GI50 [27]: 2.08 µM | TGI [27]: 6.54 µM | GI50 [28]: 1.63 µM | TGI [28]: 3.42 µM | GI50 [29]: 1.85 µM | TGI [29]: 13.6 µM | GI50 [30]: 1.66 µM | TGI [30]: 3.13 µM | GI50 [31]: 1.47 µM | TGI [31]: 3.14 µM | GI50 [32]: 2.18 µM | TGI [32]: 4.66 µM | GI50 [33]: 5.46 µM | TGI [33]: 22.7 µM | GI50 [34]: 2.37 µM | TGI [34]: 12.4 µM | GI50 [35]: 2.67 µM | TGI [35]: 10.6 µM | GI50 [36]: 3.03 µM | TGI [36]: 9.87 µM | GI50 [37]: 11.5 µM | TGI [37]: 25.6 µM | GI50 [38]: 18.6 µM | TGI [38]: 34 µM | GI50 [39]: 2.82 µM | TGI [39]: 13 µM | GI50 [40]: 2.11 µM | TGI [40]: 7.84 µM | GI50 [41]: 2.79 µM | TGI [41]: 8.51 µM | GI50 [42]: 1.91 µM | TGI [42]: 8.88 µM | GI50 [43]: 2.14 µM | TGI [43]: 4.82 µM | GI50 [44]: 3.54 µM | TGI [44]: 27 µM | GI50 [45]: 2.41 µM | TGI [45]: 6.12 µM | GI50 [46]: 3.44 µM | TGI [46]: 15.4 µM | GI50 [47]: 0.733 µM | TGI [47]: 2.51 µM | GI50 [48]: 2.36 µM | TGI [48]: 10.3 µM | GI50 [49]: 2.56 µM | TGI [49]: 8.86 µM | GI50 [50]: 0.748 µM | TGI [50]: 2.13 µM | GI50 [51]: 2.18 µM | TGI [51]: 6.48 µM | GI50 [52]: 2.8 µM | TGI [52]: 8.22 µM | GI50 [53]: 1.89 µM | TGI [53]: 10.5 µM | GI50 [54]: 1.25 µM | TGI [54]: 2.73 µM | GI50 [55]: 2.84 µM | TGI [55]: 12 µM | GI50 [56]: 2.48 µM | TGI [56]: 12.6 µM | GI50 [57]: 3.88 µM | TGI [57]: 12.5 µM
